According to EP3262036B1, “THERAPEUTIC PYRIDAZINE COMPOUNDS AND USES THEREOF” (priority 2015, dated 2016):

Tests used:
Assay in all cases: biochemical
[1] = biological target: BRM (Isoform 2) Bromodomain (Homo sapiens, UniProt P51531)
From the text: IC50 measurements for inhibitors using BRM SM TR-FRET Binding Assay

[2] = biological target: BRG1 (Homo sapiens, UniProt P51532); type: binding; details: BRG1 HTRF IC50 (µM)
From the text: IC50 measurements for inhibitors using BRG1 TR-FRET Binding Assay

[3] = biological target: Polybromodomain-1 BromoDomain-5 (PB1-BD5) (Homo sapiens, UniProt Q86U86)
Chain of Polybromodomain-1 BromoDomain-5 (PB1-BD5) (Q86U86 645-766): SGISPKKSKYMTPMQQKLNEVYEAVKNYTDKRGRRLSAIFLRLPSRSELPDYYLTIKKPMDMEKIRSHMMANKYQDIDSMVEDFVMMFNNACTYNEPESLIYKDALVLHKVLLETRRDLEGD
From the text: IC50 measurements for inhibitors using Polybromodomain-1 BromoDomain-5 (PB1-BD5) SM TR-FRET Binding Assay

Chain of BRG1 (P51532 1448-1575): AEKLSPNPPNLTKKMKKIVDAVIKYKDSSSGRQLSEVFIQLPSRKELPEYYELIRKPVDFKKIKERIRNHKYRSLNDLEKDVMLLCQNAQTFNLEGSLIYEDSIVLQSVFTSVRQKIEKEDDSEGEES
Chain of BRM (Isoform 2) Bromodomain (P51531 1377-1486 isoform P51531-2): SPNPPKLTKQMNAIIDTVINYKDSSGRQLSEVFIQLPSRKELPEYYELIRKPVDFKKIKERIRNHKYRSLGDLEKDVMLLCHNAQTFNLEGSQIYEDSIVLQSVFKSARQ

With `CN(C)Cc1ccc(-c2cc(-c3ccccc3O)nnc2N)cc1` [Example 189, 2-(6-amino-5-(4-((dimethylamino)methyl)phenyl)pyridazin-3-yl)phenol] the IC50 [1] was 49.3 nM, the IC50 [2] was 0.0222 µM and the IC50 [3] was 28.8 nM.
`CC(c1ccccc1)N1CCN(c2cc(-c3ccccc3O)nnc2N)CC1` (stereo not shown) [Example 15, 2-(6-amino-5-(4-(1-phenylethyl)piperazin-1 - yl)pyridazin-3-yl)phenol] gave an IC50 [1] of 36.1 nM and an IC50 [3] of 24.5 nM.
Work on `CN(C)CC1CCN(c2cc(-c3ccccc3O)nnc2N)CC1` [Example 5, 2-(6-amino-5-(4-((dimethylamino)methyl)piperidin-1-yl)pyridazin-3-yl)phenol] yielded an IC50 [1] of 22.5 nM and an IC50 [2] of 0.0395 µM.
`Cn1cc(-c2cc(-c3ccccc3O)nnc2N)cn1` [Example 187, 2-(6-amino-5-(1-methyl-1H-pyrazol-4-yl)pyridazin-3-yl)phenol] was tested, and the IC50 [1] was 10 nM and the IC50 [3] was 3.7 nM.
`CS(=O)(=O)N1CCN(c2cc(-c3ccccc3O)nnc2N)CC1Cc1ccccc1` (stereo not shown) [Example 119, 2-(6-amino-5-(3-benzyl-4-(methylsulfonyl)piperazin-1-yl)pyridazin-3-yl)phenol] was tested, and the IC50 [2] was 0.0385 µM and the IC50 [3] was 23.3 nM.
Work on `CC(c1ccccc1)n1cc(-c2cc(-c3ccccc3O)nnc2N)cn1` (stereo not shown) [Example 188, 2-(6-amino-5-(1-(1-phenylethyl)-1H-pyrazol-4-yl)pyridazin-3-yl)phenol] yielded an IC50 [1] of 5.7 nM and an IC50 [3] of 2.5 nM.
`Nc1nnc(-c2ccccc2O)cc1N1CC(Oc2ccccc2)C1` [Example 57, 2-(6-amino-5-(3-phenoxyazetidin-1-yl)pyridazin-3-yl)phenol] showed an IC50 [1] of 35.6 nM and an IC50 [2] of 0.0177 µM.
Molecule `C[C@H](Oc1cc(-c2ccccc2O)nnc1N)c1ccccc1` [Example 170, (S)-2-(6-amino-5-(1-phenylethoxy)pyridazin-3-yl)phenol] has an IC50 [1] of 14.9 nM and an IC50 [3] of 9.6 nM.
Work on `Nc1nnc(-c2ccccc2O)cc1N1CCN(Cc2cccnc2)CC1` [Example 3, 2-(6-amino-5-(4-(pyridin-3-ylmethyl)piperazin-1-yl)pyridazin-3-yl)phenol] yielded an IC50 [2] of 0.0373 µM and an IC50 [3] of 25.2 nM.
Work on `Nc1nnc(-c2ccccc2O)cc1C1CCN(Cc2ccccc2)CC1` [Example 218, 2-(6-amino-5-(1-benzylpiperidin-4-yl)pyridazin-3-yl)phenol] yielded an IC50 [2] of 0.0553 µM and an IC50 [3] of 44.8 nM.
`CC1CN(c2cc(-c3ccccc3O)nnc2N)CC(C)O1` (racemic) [Example 33, 2-(6-amino-5-(2,6-dimethylmorpholino)pyridazin-3-yl)phenol] showed an IC50 [1] of 69.6 nM and an IC50 [3] of 24 nM.
With `CC1CN(c2cc(-c3ccccc3O)nnc2N)CCN1C(=O)c1cccnc1` (stereo not shown) [Example 135, (4-(3-amino-6-(2-hydroxyphenyl)pyridazin-4-yl)-2-methylpiperazin-1-yl)(pyridin-3-yl)methanone] the IC50 [2] was 0.0446 µM.
`Nc1nnc(-c2ccccc2O)cc1C1CCCN(Cc2ccccc2)C1` (stereo not shown) [Example 214, 2-[6-amino-5-(1-benzyl-3-piperidyl)pyridazin-3-yl]phenol] gave an IC50 [2] of 0.112 µM.
Work on `CNC(=O)CN1CCN(c2cc(-c3ccccc3O)nnc2N)C[C@H]1C` [Example 148, (R)-2-(4-(3-amino-6-(2-hydroxyphenyl)pyridazin-4-yl)-2-methylpiperazin-1-yl)-N-methylacetamide] yielded an IC50 [2] of 0.0613 µM.
For `Nc1nnc(-c2ccccc2O)cc1N1CC(OCc2ccccc2)C1` [Example 58, 2-(6-amino-5-(3-(benzyloxy)azetidin-1-yl)pyridazin-3-yl)phenol], the IC50 [2] was 0.0252 µM.
Work on `Nc1nnc(-c2ccccc2O)cc1N1CCN(C(=O)c2cncs2)C(CO)C1` (stereo not shown) [Example 143, (4-(3-amino-6-(2-hydroxyphenyl)pyridazin-4-yl)-2-(hydroxymethyl)piperazin-1-yl)(thiazol-5-yl)methanone] yielded an IC50 [2] of 0.0206 µM.
In the case of `Cc1nc(CN2CCN(c3cc(-c4ccccc4O)nnc3N)CC2)co1` [Example 104, 2-[6-amino-5-[4-[(2-methyloxazol-4-yl)methyl]piperazin-1-yl]pyridazin-3-yl]phenol], the IC50 [2] is reported as 0.0569 µM.
For `Nc1nnc(-c2ccccc2O)cc1N1CCC2(CC1)C(=O)Nc1ccccc12` [Example 78, 1'-(3-amino-6-(2-hydroxyphenyl)pyridazin-4-yl)spiro[indoline-3,4'-piperidin]-2-one], the IC50 [2] was 0.0758 µM.
`Nc1nnc(-c2ccccc2O)cc1N1CCN(CC(F)(F)F)CC1` [Example 27, 2-(6-amino-5-(4-(2,2,2-trifluoroethyl)piperazin-1-yl)pyridazin-3-yl)phenol] was tested, and the IC50 [2] was 0.0755 µM.
With `Cc1cc(CN2CCN(c3cc(-c4ccccc4O)nnc3N)CC2)no1` [Example 101, 2-[6-amino-5-[4-[(5-methylisoxazol-3-yl)methyl]piperazin-1-yl]pyridazin-3-yl]phenol] the IC50 [2] was 0.0653 µM.
`CC1CN(c2cc(-c3ccccc3O)nnc2N)CCN1C(=O)c1ccccc1` (stereo not shown) [Example 62, (4-(3-amino-6-(2-hydroxyphenyl)pyridazin-4-yl)-2-methylpiperazin-1-yl)(phenyl)methanone] showed an IC50 [2] of 0.0117 µM.
In the case of `Nc1nnc(-c2ccccc2O)cc1N1CC2CCC(C1)N2C(=O)c1cncs1` [Example 126, (3-(3-amino-6-(2-hydroxyphenyl)pyridazin-4-yl)-3,8-diazabicyclo[3.2.1]octan-8-yl)(thiazol-5-yl)methanone], the IC50 [2] is reported as 0.0203 µM.
`Nc1nnc(-c2c(O)cccc2F)cc1-c1ccccc1` [Example 233, 2-(6-amino-5-phenylpyridazin-3-yl)-3-fluorophenol] showed an IC50 [2] of 0.435 µM.
`CC(C(=O)N(C)C)n1cc(-c2cc(-c3ccccc3O)nnc2N)cn1` (stereo not shown) [Example 194, 2-(4-(3-amino-6-(2-hydroxyphenyl)pyridazin-4-yl)-1 H-pyrazol-1-yl)-N,N-dimethylpropanamide] showed an IC50 [2] of 0.0247 µM.
In the case of `C[C@H](Oc1cc(-c2ccccc2O)nnc1N)c1cccnc1` [Example 167, (S)-2-(6-amino-5-(1-(pyridin-3-yl)ethoxy)pyridazin-3-yl)phenol], the IC50 [2] is reported as 0.0251 µM.
For `CS(=O)(=O)CCN1CCN(c2cc(-c3ccccc3O)nnc2N)CC1` [Example 26, 2-(6-amino-5-(4-(2-(methylsulfonyl)ethyl)piperazin-1-yl)pyridazin-3-yl)phenol], the IC50 [2] was 0.0978 µM.
In the case of `N#Cc1cccc(CN2CCN(c3cc(-c4ccccc4O)nnc3N)CC2)c1` [Example 96, 3-[[4-[3-amino-6-(2-hydroxyphenyl)pyridazin-4-yl]piperazin-1-yl]methyl]benzonitrile], the IC50 [2] is reported as 0.0569 µM.
For `CN(C)CCCOc1cc(-c2ccccc2O)nnc1N` [Example 175, 2-(6-amino-5-(3-(dimethylamino)propoxy)pyridazin-3-yl)phenol], the IC50 [2] was 0.117 µM.
Work on `CC(=O)N1[C@@H](C)CN(c2cc(-c3ccccc3O)nnc2N)C[C@@H]1C` [Example 127, 1-((2S,6S)-4-(3-amino-6-(2-hydroxyphenyl)pyridazin-4-yl)-2,6-dimethylpiperazin-1-yl)ethan-1-one] yielded an IC50 [2] of 0.369 µM.
Molecule `CC(C)(O)C(=O)N1C2CCC1CN(c1cc(-c3ccccc3O)nnc1N)C2` [Example 120, 1-(3-(3-amino-6-(2-hydroxyphenyl)pyridazin-4-yl)-3,8-diazabicyclo[3.2.1]octan-8-yl)-2-hydroxy-2-methylpropan-1-one] has an IC50 [2] of 0.0444 µM.
Molecule `Nc1nnc(-c2ccccc2O)cc1N1CCN(C(=O)c2ccccc2)CC1` [Example 61, (4-(3-amino-6-(2-hydroxyphenyl)pyridazin-4-yl)piperazin-1-yl)(phenyl)methanone] has an IC50 [2] of 0.0348 µM.
Molecule `Nc1nnc(-c2ccccc2O)cc1OC1CCCC1` [Example 176, 2-(6-amino-5-(cyclopentyloxy)pyridazin-3-yl)phenol] has an IC50 [2] of 0.0371 µM.
In the case of `CN(C)C(=O)N1C2CCC1CN(c1cc(-c3ccccc3O)nnc1N)C2` [Example 121, 3-(3-amino-6-(2-hydroxyphenyl)pyridazin-4-yl)-N,N-dimethyl-3,8-diazabicyclo[3.2.1]octane-8-carboxamide], the IC50 [2] is reported as 0.0225 µM.
Molecule `C[C@H]1CN(c2cc(-c3ccccc3O)nnc2N)CCN1C(=O)c1cccnc1` [Example 155] has an IC50 [2] of 0.166 µM.
With `Nc1nnc(-c2ccccc2O)cc1N1CC2CCC(C1)N2c1cncnc1` [Example 43, 2-(6-amino-5-(8-(pyrimidin-5-yl)-3,8-diazabicyclo[3.2.1]octan-3-yl)pyridazin-3-yl)phenol] the IC50 [2] was 0.0193 µM.
`CN1CCC(c2cc(-c3ccccc3O)nnc2N)CC1` [Example 211, 2-(6-amino-5-(1-methylpiperidin-4-yl)pyridazin-3-yl)phenol] showed an IC50 [2] of 0.183 µM.
In the case of `CC(Oc1cc(-c2ccccc2O)nnc1N)c1cccnc1` (stereo not shown) [Example 171, 2-(6-amino-5-(1-(pyridin-3-yl)ethoxy)pyridazin-3-yl)phenol], the IC50 [2] is reported as 0.0792 µM.
For `CN(CCc1ccccc1)c1cc(-c2ccccc2O)nnc1N` [Example 36, 2-(6-amino-5-(methyl(phenethyl)amino)pyridazin-3-yl)phenol], the IC50 [2] was 0.0962 µM.
For `Cc1noc(C)c1C(=O)N1CCN(c2cc(-c3ccccc3O)nnc2N)CC1C` (stereo not shown) [Example 123, (4-(3-amino-6-(2-hydroxyphenyl)pyridazin-4-yl)-2-methylpiperazin-1-yl)(3,5-dimethylisoxazol-4-yl)methanone], the IC50 [2] was 0.0879 µM.
`Nc1nnc(-c2ccccc2O)cc1N1CCNC(Cc2ccccc2)C1` (stereo not shown) [Example 49, 2-(6-amino-5-(3-benzylpiperazin-1-yl)pyridazin-3-yl)phenol] gave an IC50 [2] of 0.0848 µM.
`Cn1cc(CN2CCN(c3cc(-c4ccccc4O)nnc3N)CC2)cn1` [Example 107, 2-[6-amino-5-[4-[(1-methylpyrazol-4-yl)methyl]piperazin-1-yl]pyridazin-3-yl]phenol] gave an IC50 [2] of 0.0877 µM.
`Cn1ncc2c(CN3CCN(c4cc(-c5ccccc5O)nnc4N)CC3)cccc21` [Example 103, 2-[6-amino-5-[4-[(1-methylindazol-4-yl)methyl]piperazin-1-yl]pyridazin-3-yl]phenol] gave an IC50 [2] of 0.0289 µM.
For `CC1CN(c2cc(-c3ccccc3O)nnc2N)CCC1(O)c1ccccc1` (stereo not shown) [Example 44, 1-(3-amino-6-(2-hydroxyphenyl)pyridazin-4-yl)-3-methyl-4-phenylpiperidin-4-ol], the IC50 [2] was 0.0253 µM.
